From ChEMBL document CHEMBL1909046, “DrugMatrix in vitro pharmacology data”
*1 amine or outer side, *2 acyl side, *3 side chain or, on linkers, in order; H or OH if unused. Where a SMILES comes first, the peptide text is derived from it. Bridges are numbered along the chain shown (N, C = ends). Roman numbers before positions name the chains, in order. [ ]: non-standard residue; d: D form. Actinocin(1to9) = Cc1c2oc3c(C)ccc(C(=O)[*:2])c3nc-2c(C(=O)[*:1])c(N)c1=O; NMeV = CN[C@H](C(=O)O)C(C)C; Sar = CNCC(=O)O

Legend:
[1] = target: Sigma non-opioid intracellular receptor 1 (Homo sapiens, UniProt Q99720); assay: DRUGMATRIX: Sigma1 radioligand binding (ligand: [3H] Haloperidol); type: cell membranes, Jurkat, Membrane; details: jurkat; Not Active = under 50% inhibition at 10 µM
Sequence of Sigma non-opioid intracellular receptor 1 (Q99720 whole entry): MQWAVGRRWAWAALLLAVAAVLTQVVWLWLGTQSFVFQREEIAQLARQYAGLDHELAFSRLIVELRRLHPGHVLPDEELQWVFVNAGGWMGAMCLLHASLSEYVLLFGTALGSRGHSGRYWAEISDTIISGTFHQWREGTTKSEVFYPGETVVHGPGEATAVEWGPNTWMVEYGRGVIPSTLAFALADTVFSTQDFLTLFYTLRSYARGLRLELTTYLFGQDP

Carbonic anhydrase 2 = Carbonic anhydrase 2 (Homo sapiens, UniProt P00918); assay: DRUGMATRIX: Carbonic Anhydrase II enzyme inhibition (substrate: 4-Nitrophenyl acetate (4-NPA)); type: tissue-based, Erythrocyte; details: erythrocyte; Not Active = under 50% inhibition at 10 µM
[2] = DRUGMATRIX: Glutamate, AMPA radioligand binding (ligand: [3H] AMPA); type: cell membranes, Rattus norvegicus, Wistar, Cerebral cortex, Membrane; details: Not Active = under 50% inhibition at 10 µM
Leukotriene C4 synthase = target: T1, Leukotriene C4 synthase (Cavia porcellus, UniProt A6XA80); type: tissue-based, Lung;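 further: enzyme inhibition assay of leukotriene C4 synthase, using LTA4 as the substrate; in other assays of this panel Not Active means under 50% inhibition at 10 µM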
T1 sequence (A6XA80 whole entry): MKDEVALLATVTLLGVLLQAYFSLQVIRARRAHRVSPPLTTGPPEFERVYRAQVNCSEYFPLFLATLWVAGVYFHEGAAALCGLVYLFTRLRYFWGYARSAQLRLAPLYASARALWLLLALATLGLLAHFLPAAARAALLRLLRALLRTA

[3] = target: T2, Amine oxidase [flavin-containing] A (Homo sapiens, UniProt P21397); assay: DRUGMATRIX: Monoamine Oxidase MAO-A enzyme inhibition (substrate: Kynuramine); design: species or system BTI-TN-5B1-4; details: bti-tn-5b1-4; Not Active = under 50% inhibition at 10 µM
T2 sequence (P21397 whole entry): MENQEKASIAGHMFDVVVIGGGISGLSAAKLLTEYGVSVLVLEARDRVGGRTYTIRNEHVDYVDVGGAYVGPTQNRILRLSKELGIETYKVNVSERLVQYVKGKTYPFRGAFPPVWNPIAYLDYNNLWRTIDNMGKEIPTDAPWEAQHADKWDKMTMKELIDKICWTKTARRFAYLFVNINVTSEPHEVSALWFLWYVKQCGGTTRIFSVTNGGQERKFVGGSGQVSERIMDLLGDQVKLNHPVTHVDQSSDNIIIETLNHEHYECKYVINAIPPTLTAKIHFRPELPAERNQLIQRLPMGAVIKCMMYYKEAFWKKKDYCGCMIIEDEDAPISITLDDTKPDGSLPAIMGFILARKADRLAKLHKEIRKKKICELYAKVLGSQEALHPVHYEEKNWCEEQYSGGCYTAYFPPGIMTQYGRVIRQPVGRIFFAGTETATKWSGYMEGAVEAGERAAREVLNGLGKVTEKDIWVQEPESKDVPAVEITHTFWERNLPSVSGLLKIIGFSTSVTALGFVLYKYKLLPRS

[4] = target: cGMP-specific 3',5'-cyclic phosphodiesterase (Homo sapiens, UniProt O76074); assay: DRUGMATRIX: Phosphodiesterase PDE5 enzyme inhibition (substrate: [3H]cGMP + cGMP); type: tissue-based; details: platelet; Not Active = under 50% inhibition at 10 µM
[5] = target: Protein kinase C alpha type (Homo sapiens, UniProt P17252); type: cell-based; details: sf9;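 further: inhibition of PKCalpha kinase activity measured in an enzyme assay with histone as the phosphorylation substrate; in other assays of this panel Not Active means under 50% inhibition at 10 µM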
[6] = target: Protein phosphatase 3 catalytic subunit alpha (Homo sapiens, UniProt Q08209); design: species or system Escherichia coli;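 further: inhibition of calcineurin (PP2B) enzyme activity, measured with DiFMUP as the substrate; in other assays of this panel Not Active means under 50% inhibition at 10 µM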

CCOC(=O)C1=C(COCCN)NC(C)=C(C(=O)OC)C1c1ccccc1Cl (configuration not stated) [AMLODIPINE]
Not Active: IC50 [1] | IC50 (Carbonic anhydrase 2) | IC50 [2] | Ki [2] | IC50 (Leukotriene C4 synthase) | IC50 [3] | IC50 [4] | IC50 [5] | IC50 [6]

CC1Cc2ccccc2N1NC(=O)c1ccc(Cl)c(S(N)(=O)=O)c1 (configuration not stated) [INDAPAMIDE]
Not Active: IC50 [1] | IC50 (Carbonic anhydrase 2) | IC50 [2] | Ki [2] | IC50 (Leukotriene C4 synthase) | IC50 [3] | IC50 [4] | IC50 [5] | IC50 [6]

LEAD (II) ACETATE
Not Active: IC50 [1] | Ki [1] | IC50 (Carbonic anhydrase 2) | Ki (Carbonic anhydrase 2) | IC50 [2] | Ki [2] | IC50 (Leukotriene C4 synthase) | Ki (Leukotriene C4 synthase) | IC50 [3] | Ki [3] | IC50 [4] | Ki [4] | IC50 [5] | Ki [5] | IC50 [6] | Ki [6]

Cc1c2oc3c(C)ccc(C(=O)N[C@@H]4C(=O)N[C@H](C(C)C)C(=O)N5CCC[C@H]5C(=O)N(C)CC(=O)N(C)[C@@H](C(C)C)C(=O)O[C@@H]4C)c3nc-2c(C(=O)N[C@@H]2C(=O)N[C@H](C(C)C)C(=O)N3CCC[C@H]3C(=O)N(C)CC(=O)N(C)[C@@H](C(C)C)C(=O)O[C@@H]2C)c(N)c1=O [DACTINOMYCIN] (I: T[dV]P[Sar][NMeV] / II: T[dV]P[Sar][NMeV]; ester I:1-I:C, II:1-II:C; linker I:N-II:N via Actinocin(1to9))
Not Active: IC50 [1] | IC50 (Carbonic anhydrase 2) | IC50 [2] | Ki [2] | IC50 (Leukotriene C4 synthase) | IC50 [3] | IC50 [4] | IC50 [5] | IC50 [6]

NCCCCCC(=O)O [AMINOCAPROIC ACID]
Not Active: IC50 [1] | IC50 (Carbonic anhydrase 2) | IC50 [2] | Ki [2] | IC50 (Leukotriene C4 synthase) | IC50 [3] | IC50 [4] | IC50 [5] | IC50 [6]

c1ccc(Nc2ccc(Nc3ccccc3)cc2)cc1
Not Active: IC50 [1] | IC50 (Carbonic anhydrase 2) | IC50 [2] | Ki [2] | IC50 (Leukotriene C4 synthase) | IC50 [3] | IC50 [4] | IC50 [5] | IC50 [6]

NC(=O)N1c2ccccc2CCc2ccccc21
Not Active: IC50 [1] | IC50 (Carbonic anhydrase 2) | IC50 [2] | Ki [2] | IC50 (Leukotriene C4 synthase) | IC50 [3] | IC50 [4] | IC50 [5] | IC50 [6]

Cc1onc(-c2ccccc2Cl)c1C(=O)N[C@@H]1C(=O)N2[C@@H]1SC(C)(C)[C@@H]2C(=O)O [CLOXACILLIN]
Not Active: IC50 [1] | IC50 (Carbonic anhydrase 2) | IC50 [2] | Ki [2] | IC50 (Leukotriene C4 synthase) | IC50 [3] | IC50 [4] | IC50 [5] | IC50 [6]

CCCN1C[C@H](CSC)C[C@@H]2c3cccc4[nH]cc(c34)C[C@H]21 [PERGOLIDE]
Not Active: IC50 [1] | IC50 (Carbonic anhydrase 2) | IC50 [2] | Ki [2] | IC50 (Leukotriene C4 synthase) | IC50 [3] | IC50 [4] | IC50 [5] | IC50 [6]

LIPOPOLYSACCHARIDE E. COLI O55:B5
Not Active: IC50 [1] | Ki [1] | IC50 (Carbonic anhydrase 2) | Ki (Carbonic anhydrase 2) | IC50 [2] | Ki [2] | IC50 (Leukotriene C4 synthase) | Ki (Leukotriene C4 synthase) | IC50 [3] | Ki [3] | IC50 [4] | Ki [4] | IC50 [5] | Ki [5] | IC50 [6] | Ki [6]

CC(O)CO (configuration not stated) [PROPYLENE GLYCOL]
Not Active: IC50 [1] | IC50 (Carbonic anhydrase 2) | IC50 [2] | Ki [2] | IC50 (Leukotriene C4 synthase) | IC50 [3] | IC50 [4] | IC50 [5] | IC50 [6]

CC(C)C(Br)C(=O)NC(N)=O (configuration not stated) [BROMISOVALUM]
Not Active: IC50 [1] | IC50 (Carbonic anhydrase 2) | IC50 [2] | Ki [2] | IC50 (Leukotriene C4 synthase) | IC50 [3] | IC50 [4] | IC50 [5] | IC50 [6]

CCC(C)n1ncn(-c2ccc(N3CCN(c4ccc(OCC5COC(Cn6cncn6)(c6ccc(Cl)cc6Cl)O5)cc4)CC3)cc2)c1=O (configuration not stated) [ITRACONAZOLE]
Not Active: IC50 [1] | IC50 (Carbonic anhydrase 2) | IC50 [2] | Ki [2] | IC50 (Leukotriene C4 synthase) | IC50 [3] | IC50 [4] | IC50 [5] | IC50 [6]

Nc1c(Br)cc(Br)cc1CN[C@H]1CC[C@H](O)CC1 [AMBROXOL]
Not Active: IC50 [1] | IC50 (Carbonic anhydrase 2) | IC50 [2] | Ki [2] | IC50 (Leukotriene C4 synthase) | IC50 [3] | IC50 [4] | IC50 [5] | IC50 [6]

CC(C)(C)NCC(O)c1cc(Cl)c(N)c(Cl)c1 (configuration not stated) [CLENBUTEROL]
Not Active: IC50 [1] | IC50 (Carbonic anhydrase 2) | IC50 [2] | Ki [2] | IC50 (Leukotriene C4 synthase) | IC50 [3] | IC50 [4] | IC50 [5] | IC50 [6]

C[C@](N)(Cc1ccc(O)c(O)c1)C(=O)O [METHYLDOPA]
Not Active: IC50 [1] | IC50 (Carbonic anhydrase 2) | IC50 [2] | Ki [2] | IC50 (Leukotriene C4 synthase) | IC50 [3] | IC50 [4] | IC50 [5] | IC50 [6]

Cc1ccccc1N1C(=O)c2cc(S(N)(=O)=O)c(Cl)cc2NC1C (configuration not stated) [METOLAZONE]
Not Active: IC50 [1] | IC50 (Carbonic anhydrase 2) | IC50 [2] | Ki [2] | IC50 (Leukotriene C4 synthase) | IC50 [3] | IC50 [4] | IC50 [5] | IC50 [6]
